Data taken from publication PMC11241340, “The Discovery of Novel α2a Adrenergic Receptor Agonists Only Coupling to Gαi/O Proteins by Virtual Screening” (International Journal of Molecular Sciences, 2024).
Positions count from the first letter of the chain named.

Legend:
[1] = molecular target: T1, α2B-AR (Homo sapiens, UniProt P18089); assay: GloSensor cAMP assay in HEK293 cells transfected with α2B-AR; type: cell-based; parameters: Flag; expressed in transfected cells; host or cells: HEK293; details: for effect on cAMP accumulation (agonist activity) in α2B-AR cells: HEK293 α2B-AR, DMED 10^−10–10^−7M, P300–2342 10^−10–10^−5M; for effect of pretreatment on cAMP accumulation induced by DMED (antagonist activity): α2B-AR-HEK293 cells, 10 μM
T1 sequence (P18089 1-450): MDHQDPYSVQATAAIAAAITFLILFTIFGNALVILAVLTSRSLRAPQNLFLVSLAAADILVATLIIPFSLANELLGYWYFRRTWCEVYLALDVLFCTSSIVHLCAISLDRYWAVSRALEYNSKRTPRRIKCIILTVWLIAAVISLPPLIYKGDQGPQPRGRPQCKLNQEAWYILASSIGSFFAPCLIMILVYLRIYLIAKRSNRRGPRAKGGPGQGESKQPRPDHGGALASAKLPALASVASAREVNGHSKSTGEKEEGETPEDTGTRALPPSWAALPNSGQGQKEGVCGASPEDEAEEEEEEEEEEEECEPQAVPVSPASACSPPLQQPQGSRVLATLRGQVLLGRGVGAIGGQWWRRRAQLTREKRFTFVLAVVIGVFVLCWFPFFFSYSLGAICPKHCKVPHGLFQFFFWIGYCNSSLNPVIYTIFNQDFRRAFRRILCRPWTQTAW

[2] = molecular target: T2, α2A-AR (Homo sapiens, UniProt P08913); assay: Competitive inhibition of [3H] Rauwolscine binding, CHO-K1 membranes
T2 sequence (P08913 1-465): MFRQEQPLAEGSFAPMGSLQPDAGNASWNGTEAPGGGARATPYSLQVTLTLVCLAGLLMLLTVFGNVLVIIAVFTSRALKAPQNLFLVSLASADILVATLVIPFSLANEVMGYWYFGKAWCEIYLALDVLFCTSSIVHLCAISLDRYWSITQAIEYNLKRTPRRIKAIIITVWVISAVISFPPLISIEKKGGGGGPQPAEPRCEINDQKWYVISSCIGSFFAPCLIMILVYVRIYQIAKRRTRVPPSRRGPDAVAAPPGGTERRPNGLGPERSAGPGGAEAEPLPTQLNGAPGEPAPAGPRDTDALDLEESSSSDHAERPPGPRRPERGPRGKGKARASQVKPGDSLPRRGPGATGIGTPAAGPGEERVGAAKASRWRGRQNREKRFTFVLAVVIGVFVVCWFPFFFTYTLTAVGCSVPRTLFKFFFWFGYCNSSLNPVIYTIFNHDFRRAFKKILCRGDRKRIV

[3] = molecular target: T2, α2A-AR; assay: GloSensor cAMP assay in HEK293 cells transfected with α2A-AR; type: cell-based; parameters: Flag; expressed in transfected cells; host or cells: HEK293; details: for increase of cAMP accumulation (Gαs coupling) / decrease of cAMP accumulation stimulated by forskolin (Gαi/o coupling): α2A-AR HEK293, P300–2342 10^−10–10^−5M; for increase of cAMP accumulation (Gαs coupling): DMED 10^−8–10^−5M; for decrease of cAMP accumulation stimulated by forskolin (Gαi/o coupling): FSK 10^−5M, DMED 10^−13–10^−9M; for decrease in cAMP accumulation after pertussis toxin pretreatment: PTX 500 ng/mL, 24 h
Method: (§1) According to the GloSensor cAMP biosensor (Promega, Shanghai, China) manufacturer protocols, HEK293 cells were co-transfected with the pGloSensor-22F cAMP plasmid (Promega, E1171) and pCMV6 Entry-Flag-α2A-AR. After 24 h, the cells were seeded in white 96-well plates. The next day, the cell media were replaced by 90 μL of fresh DMEM with 2% v/v GloSensor cAMP reagent (Promega, E1290) and incubated for 60 min at 37 °C. Before drug stimulation, an initial measurement of the baseline signal was detected. […] PTX 500 ng/mL pretreatment for 24 h was used to assay the chemical effects on Gi coupling following α2A-AR activation. Two mutations, V114A and Y394A were introduced into the α2A-AR genes, respectively, using standard QuickChange PCR. […] In each experiment, the cAMP assay used pcDNA3.1 myc/hisB transfected cells as a negative control and cells stimulated with 10 μM of forskolin as a positive control. The signal was read using a Victor 2D Instrument (PerkinElmer) at 675 nm. The production of cAMP% was calculated (the signal value after chemicals addition–baseline signal value)/the baseline signal value *100 as described in our previous study.

[4] = tested on: C57BL/6 mice; assay: Spontaneous locomotor activity of mice; type: in vivo, mouse; details: for inhibition of mice locomotor activity compared to solvent: 10 nmol/mice, i.c.v.
From the text: Animals had free access to water and food. […] Animals were assigned to groups randomly before testing.

[5] = molecular target: T1, α2B-AR; assay: Competitive inhibition of [3H] Rauwolscine binding, CHO-K1 membranes
[6] = molecular target: T3, α2A-AR mutant Y394A (α2AY394A-AR) (Homo sapiens, UniProt P08913, Y409A); assay: GloSensor cAMP assay in HEK293 cells transfected with α2AY394A-AR; type: cell-based; details: forskolin 10 μM
T3 construct: Flag; expressed in transfected cells; host or cells: HEK293
T3 sequence (P08913 1-465 Y409A): T2 sequence (P08913 1-465) with Y409A
Method: as §1

[7] = tested on: C57/B6 mice; details: 432 nmol/kg, i.p.
Method: C57BL/6 mice (20–22 g) were purchased from the SPF biotechnology co., LTD (Beijing, China). All the animals were housed in an alternating 12 h light/12 h dark cycle room, which was maintained in a climate-controlled environment (25 ± 1 °C). Animals had free access to water and food. All the experimental procedures were reviewed and approved by the ethics committee and institutional animal care and use committee of the Beijing Institute of Pharmacology and Toxicology, Beijing, China (IACUC of AMMS–06–2017–001). Animals were assigned to groups randomly before testing. Testing occurred within the same approximate time of day between experiments. The experimenter was blinded to treatment throughout the course of behavioral testing.
The LORR in C57/B6 mice were used to study the effects of screening compounds.

[8] = molecular target: T4, α2A-AR mutant V114A (α2AV114A-AR) (Homo sapiens, UniProt P08913, V129A); assay: GloSensor cAMP assay in HEK293 cells transfected with α2AV114A-AR; type: cell-based; details: forskolin 10 μM
T4 construct: Flag; expressed in transfected cells; host or cells: HEK293
T4 sequence (P08913 1-465 V129A): T2 sequence (P08913 1-465) with V129A
Method: as §1

Row | Structure (SMILES) | effect on cAMP accumulation (agonist activity) in α2B-AR cells [1] | effect of pretreatment on cAMP accumulation induced by DMED (antagonist activity) [1] | IC50 [2] [µM] | maximum binding inhibition of [3H] Rauwolscine, α2A-AR [2] [%] | increase of cAMP accumulation (Gαs coupling) [3] | decrease of cAMP accumulation stimulated by forskolin (Gαi/o coupling) [3] | inhibition of mice locomotor activity compared to solvent [4] | IC50 [5] [µM] | maximum binding inhibition of [3H] Rauwolscine, α2B-AR [5] [%] | cAMP production in α2AY394A-AR compared to α2A-AR wild type [6] | decrease of cAMP production in α2AY394A-AR cells [6] | decrease in cAMP accumulation after pertussis toxin pretreatment [3] | LORR induced in mice [7] [%] | cAMP production in α2AV114A-AR compared to α2A-AR wild type [8] | decrease of cAMP production in α2AV114A-AR cells [8] | effect on cAMP accumulation in presence of α2A-AR selective antagonist BRL44408 ([3]; BRL44408 1 μM) | antagonism of the locomotor inhibition by α2-AR antagonist atipamezole ([4]; compound 10 nmol/mice i.c.v., atipamezole 0.2 mg/kg i.p.) | locomotor activity of mice (abstract statement) ([4]; p < 0.05, dose not given)
1 | CCN(CC)CCNC(=O)c1ccc2c(c1)n(Cc1ccccc1)c(=O)c1ccnn12 [P300–1500] | no activation | no effects | 9.66 | 90 | without increasing | decreased | 30%–60% | 19 | 85 |  |  |  |  |  |  |  |  | 
2 | Cc1cccc([C@H](C)c2cnc[nH]2)c1C [DMED, Dexmedetomidine, reference compound] | concentration-dependently increased |  |  |  | concentration-dependently increased | concentration-dependently decreased |  | 0.0146 |  | increased | did not decrease | abolished | 50 | increased | did not decrease |  |  | 
3 | COc1ccccc1N1CCN(CCN2C(=O)c3ccccc3C(C)(C)C2=O)CC1 [ARC239, reference compound] |  | decreased |  |  |  |  |  |  |  |  |  |  |  |  |  |  |  | 
4 | CCN(CC)CCNC(=O)c1ccc2c(c1)n(Cc1cccc(F)c1)c(=O)c1ccnn12 [P300–2342] | no effect | slightly decreased |  | 83 | without increasing | concentration-dependently decreased |  |  | 71 |  | did not decrease | abolished |  |  | did not decrease | antagonized | could be antagonized | significantly decreased
5 | O=C(NCCN1CCCCC1)c1ccc2c(c1)n(Cc1cccc(F)c1)c(=O)c1ccnn12 [P300–2344] | no activation | no effects | 11.3 | 91 | without increasing | decreased | 30%–60% | 15.9 | 86 |  |  |  |  |  |  |  |  | 
6 | CN(C)CCNC(=O)c1ccc2c(c1)n(Cc1cccc(F)c1)c(=O)c1ccnn12 [T226–1970] | no activation | slightly decreased | 19.5 | 85 | without increasing | decreased | 30%–60% | 8.56 | 94 |  |  |  |  |  |  |  |  | 
